Results published in patent publication US9267122B2, “Modulation of phospholipase D for the treatment of neurodegenerative disorders” (THE TRUSTEES OF COLUMBIA UNIVERSITY IN THE CITY OF NEW YORK, priority 2009, dated 2016).
Entries after “also recorded” stand apart in the source; their conditions may differ.

What was measured:
primary cortical neurons = assay: Rescue of oAβ42-induced decrease in PIP2 levels in primary cortical neuronal cultures; assay type: cell-based, mice; settings: 750 nM FIPI pretreatment for 1 hour, then 200 nM oAβ42 for 2 hours; n=3
[1] = test system: N2a cells expressing swAPP; assay: Aβ secretion by N2a cells expressing swAPP (ELISA); assay type: cell-based
Method: N2a cells expressing swAPP after reaching confluence, were replaced with new media and treated either with vehicle (black) or FIPI (gray) for 6 hours. The media was collected and both Aβ40 (A) and Aβ42 (B) were measured by ELISA. n=6.

PLD1 = target: T1, PLD1 (Homo sapiens, UniProt Q13393); settings: PLD1 versus PLD2; cited from earlier work
T1 sequence (Q13393 1-1074): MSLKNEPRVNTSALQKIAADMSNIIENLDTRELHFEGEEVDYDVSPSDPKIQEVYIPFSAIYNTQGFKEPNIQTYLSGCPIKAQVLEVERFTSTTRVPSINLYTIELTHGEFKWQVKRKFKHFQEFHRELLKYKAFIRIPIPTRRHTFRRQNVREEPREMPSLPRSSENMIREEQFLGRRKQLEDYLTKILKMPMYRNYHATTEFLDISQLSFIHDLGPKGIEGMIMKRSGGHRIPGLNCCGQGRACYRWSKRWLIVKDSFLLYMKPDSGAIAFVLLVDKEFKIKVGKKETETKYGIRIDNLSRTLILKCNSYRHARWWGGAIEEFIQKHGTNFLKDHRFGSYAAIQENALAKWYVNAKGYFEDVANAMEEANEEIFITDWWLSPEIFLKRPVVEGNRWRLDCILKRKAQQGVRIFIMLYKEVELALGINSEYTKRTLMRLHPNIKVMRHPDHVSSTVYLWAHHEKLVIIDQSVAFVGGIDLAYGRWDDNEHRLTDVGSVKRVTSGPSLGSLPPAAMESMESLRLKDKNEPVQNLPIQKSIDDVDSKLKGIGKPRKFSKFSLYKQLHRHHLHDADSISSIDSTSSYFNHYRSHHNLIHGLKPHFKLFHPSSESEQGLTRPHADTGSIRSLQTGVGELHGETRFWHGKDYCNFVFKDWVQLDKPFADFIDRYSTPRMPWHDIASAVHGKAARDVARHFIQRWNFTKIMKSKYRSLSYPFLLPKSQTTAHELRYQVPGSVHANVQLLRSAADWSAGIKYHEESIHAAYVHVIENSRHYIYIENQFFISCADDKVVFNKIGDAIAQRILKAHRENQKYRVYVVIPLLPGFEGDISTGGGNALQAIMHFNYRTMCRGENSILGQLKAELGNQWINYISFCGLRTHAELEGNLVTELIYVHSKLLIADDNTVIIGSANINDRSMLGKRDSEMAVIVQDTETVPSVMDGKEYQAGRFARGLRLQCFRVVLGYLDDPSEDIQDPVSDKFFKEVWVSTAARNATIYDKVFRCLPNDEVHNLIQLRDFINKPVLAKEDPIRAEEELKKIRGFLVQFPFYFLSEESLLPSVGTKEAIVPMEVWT

Calu-1 = settings: cited from earlier work
293-PLD2 = settings: cited from earlier work

Compound | PIP2 levels after oAβ42 (primary cortical neurons) | secreted Aβ42 ([1]; N2A cells expressing swAPP treated with FIPI, 6 hours, ELISA of media) | production of Aβ (Aβ40 and Aβ42) ([1]; N2a swAPP cells, FIPI versus vehicle for 6 hours, ELISA, n=6) | PLD isoform selectivity (PLD1) | IC50 (Calu-1) [µM] | IC50 (293-PLD2) [µM]
O=C(NCCN1CCC(n2c(=O)[nH]c3ccccc32)CC1)c1cc2cc(F)ccc2[nH]1 [FIPI, 5-Fluoro-2-indolyl des-chlorohalopemide] | partially rescues oAβ42 induced decrease in PIP2 levels; also recorded: partially rescue PIP2 deficiency | secrete lower amounts of Aβ42 | decrease production of Aβ | blocks both PLD1 and PLD2 |  | 
C[C@@H](CN1CCC(n2c(=O)[nH]c3cc(Br)ccc32)CC1)NC(=O)[C@@H]1C[C@H]1c1ccccc1 [compound 13r, (1R,2R)—N—((S)-1-(4-(5-bromo-2-oxo-2,3-dihydro-1H-benzo[d]imidazol-1-yl)piperidin-1-yl)propan-2-yl)-2-phenylcyclopropanecarboxamide] |  |  |  |  | 0.0037 | 
O=C(NCCN1CCC2(CC1)C(=O)NCN2c1ccccc1)c1cnc2ccccc2c1 [compound 9b, N-(2-(4-oxo-1-phenyl-1,3,8-triazaspiro[4,5]decan-8-yl)ethyl)quinoline-3-carboxamide] |  |  |  |  | 1.9 | 0.09
